From patent US9340577B2, “HLA binding motifs and peptides and their uses” (priority 1992, dated 2016) come the findings set out here.

No end group written: not given here.

One assay has as its target A2.1 HLA molecules (Homo sapiens, UniProt P04439, D140Y/D185E/D98H/E176V/E277Q/G131W/G231S/I119V/I121R/I166T/I218V/L300P/L318F/N151K/N90K/P208A/P217A/Q86G/Q94H/R138H/R169H/T345S).
Experiment: not given
The assay is classed as binding. Also on record: A*0201 / A2.1 Binding / A2 Bind. / A2 / A2.1 (binding capacity): scale not given here.
With 1.0092 (TLTCGFACL) [Peptide 1.0092], the “A2.1 Binding” value is given as 0.0004.
On to 1.0187 (HLLVGSSBL) [Peptide 1.0187], for which the “A2.1 Binding” value was 0.0018.
Take 1.0500 (IMAKNBVFCV) [Peptide 1.0500]: the “A2.1 (binding capacity)” value was 0.0088.
For the compound 1.0689 (VLKDAIKDLV) [Peptide 1.0689], the “A2.1 (binding capacity)” value was 0.0002.
With 1.0876 (FLCILLLCL) [Peptide 1.0876], the “A2.1 Binding” value is 0.0007.
For ALASCMGLI, the “A2 Bind.” value came to 0.0110.
Regarding ALBRWGLLV [Peptide 34.0132], the “A*0201” value stood at 0.0960.
Turning to ALGRNSFEV, the “A2 Bind.” value amounted to 0.0570.
With ALHLFKTTV, the “A2 Bind.” value is reported as 0.0170.
On to ALISFLLLA, for which the “A2 Bind.” value worked out at 0.2200.
As to ALLDGGNML, the “A2 Bind.” value is listed as 0.0320.
As for ALLLVLALL, the “A2.1 Binding” value is recorded as 0.0014.
ALMDLLMFS: the “A2 Bind.” value came out at 0.4300.
In the case of ALMPLYASI, the “A2 Bind.” value is recorded as 0.0760.
For ALPPASPSA, the “A2 Bind.” value amounted to 0.0710.
ALSLIVNLL: the “A2 Bind.” value is 0.0470.
AMGLVCVQV: the “A2.1 relative binding (ratio of binding of test peptide relative to standard peptide)” value was 0.012.
AMLTACVEV: the “A2 Bind.” value was 0.1000 and the “A2.1 Binding” value stood at 0.089.
In the case of AMPRRVLHA, the “A2.1 Binding” value stood at 0.0014.
AMSFTFTTL: the “A2.1 Binding” value was 0.0005.
In the case of AMSRNLFRV, the “A2 Bind.” value turned out to be 0.1500 and the “A2.1 Binding” value worked out at 0.15.
Take CLFHIVNLI: the “A2 Bind.” value is given as 0.2100.
The same measure, in the same setting: for CLGWLTGMDI the value was 0.0190.
With DLKQMERVV, the “A2.1 Binding” value is 0.
As for DMLGRVFFV, the “A2 Bind.” value is on record as 0.0110 and the “A2.1 Binding” value is listed as 0.011.
On to ELKKVSVL, for which the “A2.1 Binding” value was found to be 0.
Regarding ELKQTRVNL, the “A2.1 Binding” value came out at 0.
Still for that read-out and setting: for ELQMMQDWV the value was 0.0001.
With ELSIFRERL, the “A2.1 Binding” value is 0.0002.
As to FLGLSPTVWV [listing 1 of 2 here], the “A2 Bind.” value is on record as 0.0300.
For FLGLSPTVWV [listing 2 of 2 here], the “A2.1 relative binding (ratio of binding of test peptide relative to standard peptide)” value is on record as 0.030.
Turning to FLLAQFTSA, the A2 is recorded as 0.6600 and the “A2 Bind.” value was determined as 0.6600.
Consider FLPSDFFPSI, for which the “A2 Bind.” value stood at 0.2100.
As to FLRVQQKAL, the “A2.1 Binding” value was determined as 0.0002.

The next assay addresses DR1 (DRB1*0101) (Homo sapiens, UniProt P01903+P01911, A100R/D57E/F55L/F60I/F76Y/I96L/L162R/M171V/P40L/Q125E/R42F/V115G/Y59C). Put plainly: biochemical. The assay is classed as binding.
Take `CC(C)[C@H](NC(=O)[C@@H]1CCCN1C(=O)[C@H](CCCCN)NC(=O)[C@H](CO)NC(=O)[C@H](CC(N)=O)NC(=O)[C@H](CC(N)=O)NC(=O)[C@H](CO)NC(=O)[C@H](CO)NC(=O)[C@H](Cc1ccc(O)cc1)NC(=O)[C@H](CO)NC(=O)[C@@H]1CCCN1C(=O)[C@@H](N)CCCCN)C(=O)N[C@@H](CCC(=O)O)C(=O)N[C@@H](CC(=O)O)C(=O)N[C@@H](CCCCN)C(=O)O` [Peptide 9014.0043]: it took 39 nM to reach half-maximal inhibition (IC50).
`CC[C@H](C)[C@H](NC(=O)[C@@H](NC(=O)[C@H](CCCCN)NC(=O)[C@H](Cc1ccccc1)NC(=O)[C@@H](NC(=O)[C@@H](NC(=O)[C@@H](N)CCCNC(=N)N)[C@@H](C)O)[C@@H](C)O)[C@@H](C)O)C(=O)N[C@H](C(=O)N[C@H](C(=O)N[C@@H](CO)C(=O)N[C@@H](C)C(=O)N[C@@H](CCC(=O)O)C(=O)N[C@@H](CC(C)C)C(=O)N1CCC[C@H]1C(=O)N[C@@H](CCCCN)C(=O)O)C(C)C)[C@@H](C)O` [Peptide 9014.0054] registered an IC50 of 55 nM.
For the compound `CC[C@H](C)[C@H](NC(=O)[C@@H](NC(=O)[C@H](CCCCN)NC(=O)[C@H](CC(C)C)NC(=O)[C@@H](NC(=O)[C@@H](NC(=O)[C@@H](N)CCCNC(=N)N)[C@@H](C)O)[C@@H](C)O)[C@@H](C)O)C(=O)N[C@H](C(=O)N[C@H](C(=O)N[C@@H](CO)C(=O)N[C@@H](C)C(=O)N[C@@H](CCC(=O)O)C(=O)N[C@@H](CC(C)C)C(=O)N1CCC[C@H]1C(=O)N[C@@H](CCCCN)C(=O)O)C(C)C)[C@@H](C)O` [Peptide 9014.0058], the IC50 was determined as 308 nM.
On to CWMIDSEARPRFREL [Peptide 9014.0219], for which it took 55 nM to reach half-maximal inhibition (IC50).
Same read-out and setting: to CWMIDSEHRPRFREL [Peptide 9014.0221] belongs 868 nM; to CWMIDSELRPRFREL [Peptide 9014.0223], 433 nM.
In the case of CWMIDSESRPRFREL [Peptide 9014.0225], the IC50 is 459 nM.
For CWMIDSETRPRFREL [Peptide 9014.0226], half-maximal inhibition (IC50) required 371 nM.
In turn, CWMIDSEVRPRFREL [Peptide 9014.0227] displayed a 50% inhibitory concentration (IC50) of 753 nM.
The compound DMKLRLAASPETHLD [Peptide 9014.0115] had a concentration for half-maximal inhibition (IC50) of 47 nM.
With DMKLRLIASPETHLD [Peptide 9014.0118], the IC50 was found to be 12 nM.
Turning to DMKLRLLASPETHLD [Peptide 9014.0119], the IC50 was 12 nM.
DMKLRLNASPETHLD [Peptide 9014.0120] registered an IC50 of 902 nM.
The same measure, in the same setting: to DMKLRLPAIPETHLD [Peptide 9014.0135] belongs 764 nM; to DMKLRLSASPETHLD [Peptide 9014.0121], 823 nM.
Still for that read-out and setting: to DMKLRLVASPETHLD [Peptide 9014.0123] belongs 28 nM; to DMKYRLPASPETHLD [Peptide 9014.0131], 776 nM; to ETEAVEPLTPSGAMP [Peptide 9014.0141], 51 nM.
ETEFVEPLTPSGAMP [Peptide 9014.0142] gave an IC50 of 25 nM.
Compound ETEHVEPLTPSGAMP [Peptide 9014.0143] gave a half-inhibitory concentration (IC50) of 62 nM.
Consider ETEIVEPLTPSGAMP [Peptide 9014.0144], for which half-maximal inhibition (IC50) was put at 481 nM.
For the compound ETEKVEPLTPSGAMP [Peptide 9014.0145], the IC50 came to 21 nM.
With ETELVEPLAPSGAMP [Peptide 9014.0149], half-maximal inhibition (IC50) required 45 nM.
ETELVEPLFPSGAMP [Peptide 9014.0150] had a half-maximal inhibitory concentration (IC50) of 304 nM.
The same measure, in the same setting: for ETELVEPLHPSGAMP [Peptide 9014.0151] the value was 31 nM; for ETELVEPLIPSGAMP [Peptide 9014.0152], 55 nM.
Same read-out and setting: to ETELVEPLLPSGAMP [Peptide 9014.0153] belongs 335 nM; to ETELVEPLSPSGAMP [Peptide 9014.0155], 117 nM.
ETELVEPLVPSGAMP [Peptide 9014.0156]: half-maximal inhibition (IC50) required 85 nM.
The same measure, in the same setting: to ETEVVEPLTPSGAMP [Peptide 9014.0146] belongs 40 nM; to ETEWVEPLTPSGAMP [Peptide 9014.0147], 24 nM.
As for ETEYVEPLTPSGAMP [Peptide 9014.0148], the IC50 was determined as 23 nM.
In the case of GTDMKLRLAASPETH [Peptide 9014.0096], inhibition was half-maximal at 22 nM (IC50).
For GTDMKLRLFASPETH [Peptide 9014.0097], the IC50 was found to be 170 nM.
In the case of GTDMKLRLHASPETH [Peptide 9014.0098], the midpoint of inhibition, the IC50, lay at 823 nM.
GTDMKLRLIASPETH [Peptide 9014.0099]: the IC50 worked out at 18 nM.
GTDMKLRLLASPETH [Peptide 9014.0100] had an IC50 of 13 nM.
The compound GTDMKLRLNASPETH [Peptide 9014.0101] gave an IC50 of 225 nM.
Take GTDMKLRLSASPETH [Peptide 9014.0102]: the IC50 was determined as 65 nM.
Turning to GTDMKLRLTASPETH [Peptide 9014.0103], the half-inhibitory concentration (IC50) came to 45 nM.
GTDMKLRLVASPETH [Peptide 9014.0104]: the IC50 came out at 17 nM.
Compound GTDWKLRLPASPETH [Peptide 9014.0094] displayed an IC50 of 799 nM.
For the compound GTDYKLRLPASPETH [Peptide 9014.0095], the IC50 stood at 594 nM.
Consider ITDFGLARALDIDET [Peptide 9014.0183], for which half-maximal inhibition (IC50) was put at 25 nM.
ITDFGLARSLDIDET [Peptide 9014.0188] registered a half-maximal inhibitory concentration (IC50) of 69 nM.
For ITDIGLARLLDIDET [Peptide 9014.0177], half-maximal inhibition (IC50) was put at 907 nM.
Same read-out and setting: to KEILDEAYLMAGVGS [Peptide 9014.0170] belongs 969 nM; to KFFGSLAFLPESFDGDPA [Peptide 9014.0231], 225 nM; to KHFGSLAFLPESFDGDPA [Peptide 9014.0232], 631 nM.
Same read-out and setting: for KIFGSLAFLPESHDGDPA [9014,0255] the value was 813 nM; for KIFGSLAHLPESFDGDPA [Peptide 9014.0247], 950 nM; for KIFGSLAILPESFDGDPA [Peptide 9014.0248], 382 nM.
Same read-out and setting: to KIFGSLAVLPESFDGDPA [Peptide 9014.0251] belongs 229 nM.
KIFGSLAWLPESFDGDPA [Peptide 9014.0252] returned a half-maximal inhibitory concentration (IC50) of 120 nM.
On the same count and under the same terms, for KIFGSLAYLPESFDGDPA [Peptide 9014.0253] the value was 636 nM.
For the compound KIFGSLLFLPESFDGDPA [Peptide 9014.0241], inhibition was half-maximal at 433 nM (IC50).
KIFGSLNFLPESFDGDPA [Peptide 9014.0242] had an IC50 of 225 nM.
Consider KIFGSLTFLPESFDGDPA [Peptide 9014.0244], for which the midpoint of inhibition, the IC50, lay at 233 nM.
Compound KLFGSLAFLPESFDGDPA [Peptide 9014.0234] came in with a concentration for half-maximal inhibition (IC50) of 795 nM.
Regarding KVFGSLAFLPESFDGDPA [Peptide 9014.0235], the half-maximal inhibitory concentration (IC50) worked out at 672 nM.
KWFGSLAFLPESFDGDPA [Peptide 9014.0236] had an IC50 of 447 nM.
Compound KYFGSLAFLPESFDGDPA [Peptide 9014.0237] showed an IC50 of 949 nM.
Still for that read-out and setting: for NASLLIQNSIQNDTG [Peptide 9014.0015] the value was 100 nM; for QNFIQNDTGFYTLHV [Peptide 9014.0071], 677 nM.
Same read-out and setting: for QNYIQNDTGFYTLHV [Peptide 9014.0077] the value was 454 nM; for RTTVKTITLSAELPK [Peptide 9014.0065], 721 nM.

Broadly, the IC50 is the concentration at which inhibition is half-maximal.
